Six compounds from ChEMBL document CHEMBL1143697, “Lemnalosides A-D, decalin-type bicyclic diterpene glycosides from the marine soft coral Lemnalia sp” (2007) can be followed below.

Assay [1] concerns Streptomyces. Put plainly: microbe, parasite or virus in culture. The class given is functional. The note with it: 85E, read-out: IZ.
Description: Growth inhibition of Streptomyces 85E at 20 ug/disk by hyphae formation inhibition assay
Assay [2] has as its system Streptomyces. Put plainly: Growth inhibition of Streptomyces 85E at 2.5 ug/disk by hyphae formation inhibition assay. It counts as functional, organism-based.
The test system of assay [3] is Streptomyces. Put plainly: microbe, parasite or virus in culture. The note with it: 85E, read-out: IZ.
Description: Growth inhibition of Streptomyces 85E assessed as induction of bald phenotype effect at 5 ug/disk by hyphae formation inhibition assay
Assay [4] has as its system Streptomyces. Put plainly: Growth inhibition of Streptomyces 85E by hyphae formation inhibition assay. The class given is functional, organism-based.
In assay [5] the test system is Streptomyces. Put plainly: Growth inhibition of Streptomyces 85E at 10 ug/disk by hyphae formation inhibition assay. It counts as functional, organism-based.

Calls of active or inactive are those of the source. No cut-off for these calls is given here.

As for `CC(=O)O[C@H]1[C@@H](O)[C@@H](CO)O[C@@H](O[C@@]2(C)CC[C@@H]([C@H](C)CCC=C(C)C)[C@@H]3C=C(C)CC[C@@H]32)[C@@H]1O` [LEMNALOSIDE B], the zone of inhibition at 20 µg/disc with Streptomyces [1] turned out to be 18 mm. Moreover, the outcome in the assay on Streptomyces [2] was Active.
For the compound `N#CC(=C(/N)Sc1ccccc1N)/C(C#N)=C(\N)Sc1ccccc1N`, in the assay with Streptomyces [3], the zone of inhibition at 5 µg/disc turned out to be 15 mm. The zone of inhibition at 20 µg/disc with Streptomyces [1] was 15 mm.
For `C=C(C)C(CC[C@@H](C)[C@@H]1CC[C@](C)(O[C@@H]2O[C@H](COC(C)=O)[C@H](O)[C@H](O)[C@H]2O)[C@H]2CCC(C)=C[C@@H]12)OO` (stereo not given in full), the outcome in the assay with Streptomyces [4] was inactive.
On to `CC1=C[C@H]2[C@H]([C@H](C)CCC[C@@H](C)C3OC[C@H]4O[C@@H](O3)[C@H](O)[C@@H](O)[C@@H]4O)CC=C(C)[C@H]2CC1` (stereo not given in full) [LEMNABOURSIDE], for which the outcome in the assay with Streptomyces [5] was inactive. For the same compound, the zone of inhibition at 20 µg/disc in the assay with Streptomyces [1] was found to be 10 mm.
As to `CO[C@@]12[C@H](COC(N)=O)C3=C(C(=O)C(C)=C(N)C3=O)N1C[C@@H]1N[C@@H]12` [MITOMYCIN], in the assay on Streptomyces [1], the zone of inhibition at 20 µg/disc worked out at 30 mm.
`CC(=O)OC[C@H]1O[C@@H](O[C@@]2(C)CC[C@@H]([C@H](C)CCC=C(C)C)[C@@H]3C=C(C)CC[C@@H]32)[C@H](O)[C@@H](O)[C@H]1O` [LEMNALOSIDE A]: the outcome in the assay on Streptomyces [5] was inactive. In the assay with Streptomyces [1], the zone of inhibition at 20 µg/disc worked out at 11 mm.
